Data taken from ChEMBL document CHEMBL1156471, “Targeting host cell furin proprotein convertases as a therapeutic strategy against bacterial toxins and viral pathogens” (J Biol Chem, 2007).
The source made the active and inactive calls. The calls are words filed in the database; no cut-off is given here. Non-standard residues stand in square brackets, D forms with d. Residues, ends and D or L forms follow the SMILES beside them. βAla = NCCC(=O)O

What was measured:
U-251 [1] = test: Protection against anthrax PA63-lethal toxin complex-induced cytotoxicity in human U251 cells at 20 uM at 400 ng/ml by MTT test; type: cell-based
Bacillus anthracis [2] = test: Protection against Bacillus anthracis Sterne spores infected A/J mouse at 12.5 mg/kg, ip administered once daily for 6 days; type: functional; conditions: route intraperitoneal
Bacillus anthracis [3] = test: Protection against Bacillus anthracis Sterne spores infected A/J mouse assessed as survival at 12.5 mg/kg, ip administered once daily for 6 days; type: functional; conditions: route intraperitoneal
Bacillus anthracis [4] = test: Protection against Bacillus anthracis Sterne spores infected A/J mouse assessed as survival at 25 mg/kg, sc administered daily after 4 days post infection; type: functional; conditions: route subcutaneous
[5] = target: T1, Proprotein convertase subtilisin/kexin type 7 (Homo sapiens, UniProt Q16549)
T1 sequence (Q16549 whole entry): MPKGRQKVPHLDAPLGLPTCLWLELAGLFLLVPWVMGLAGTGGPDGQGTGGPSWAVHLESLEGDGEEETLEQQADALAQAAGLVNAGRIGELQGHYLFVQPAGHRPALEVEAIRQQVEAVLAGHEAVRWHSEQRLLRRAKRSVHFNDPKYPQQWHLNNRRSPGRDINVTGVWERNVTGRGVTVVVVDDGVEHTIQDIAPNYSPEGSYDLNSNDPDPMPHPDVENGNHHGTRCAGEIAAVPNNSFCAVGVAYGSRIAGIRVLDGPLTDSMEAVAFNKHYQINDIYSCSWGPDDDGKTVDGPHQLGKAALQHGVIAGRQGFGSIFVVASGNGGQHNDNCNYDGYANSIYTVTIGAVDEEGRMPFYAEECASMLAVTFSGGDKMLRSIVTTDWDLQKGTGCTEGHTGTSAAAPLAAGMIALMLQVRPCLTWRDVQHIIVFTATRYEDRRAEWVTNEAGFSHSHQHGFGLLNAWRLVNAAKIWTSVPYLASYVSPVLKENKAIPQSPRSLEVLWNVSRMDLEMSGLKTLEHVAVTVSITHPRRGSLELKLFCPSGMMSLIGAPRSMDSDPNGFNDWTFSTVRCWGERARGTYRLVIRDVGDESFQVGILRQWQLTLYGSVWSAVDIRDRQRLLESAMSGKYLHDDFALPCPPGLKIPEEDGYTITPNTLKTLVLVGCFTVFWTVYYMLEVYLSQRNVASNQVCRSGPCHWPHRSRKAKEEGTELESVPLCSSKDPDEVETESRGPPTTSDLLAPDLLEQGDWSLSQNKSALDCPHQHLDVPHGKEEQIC

Furin [6] = target: T2, Furin (Homo sapiens, UniProt P09958)
T2 sequence (P09958 whole entry): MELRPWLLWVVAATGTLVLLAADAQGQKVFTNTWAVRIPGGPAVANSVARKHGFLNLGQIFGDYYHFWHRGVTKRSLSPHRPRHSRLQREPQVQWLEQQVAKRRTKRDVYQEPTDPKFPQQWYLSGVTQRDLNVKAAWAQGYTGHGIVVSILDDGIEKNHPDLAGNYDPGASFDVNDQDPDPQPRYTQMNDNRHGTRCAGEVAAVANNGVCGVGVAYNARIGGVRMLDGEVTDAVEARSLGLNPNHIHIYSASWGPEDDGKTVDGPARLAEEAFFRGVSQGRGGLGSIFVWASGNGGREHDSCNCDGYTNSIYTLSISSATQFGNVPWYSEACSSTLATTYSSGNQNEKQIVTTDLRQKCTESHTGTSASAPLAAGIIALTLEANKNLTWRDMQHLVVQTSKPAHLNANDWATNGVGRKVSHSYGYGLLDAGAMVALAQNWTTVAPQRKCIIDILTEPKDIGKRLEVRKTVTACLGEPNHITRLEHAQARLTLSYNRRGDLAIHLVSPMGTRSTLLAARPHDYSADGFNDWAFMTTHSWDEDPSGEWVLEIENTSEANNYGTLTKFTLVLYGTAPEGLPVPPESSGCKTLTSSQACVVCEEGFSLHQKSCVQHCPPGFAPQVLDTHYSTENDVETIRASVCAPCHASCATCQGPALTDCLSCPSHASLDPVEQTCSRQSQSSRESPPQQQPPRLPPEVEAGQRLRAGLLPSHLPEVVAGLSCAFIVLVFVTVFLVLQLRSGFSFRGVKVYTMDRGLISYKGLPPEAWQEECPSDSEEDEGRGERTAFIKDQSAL

[7] = target: Proprotein convertase subtilisin/kexin type 5 (Homo sapiens, UniProt Q92824)
Proprotein convertase subtilisin/kexin type 5, sequence (Q92824 whole entry): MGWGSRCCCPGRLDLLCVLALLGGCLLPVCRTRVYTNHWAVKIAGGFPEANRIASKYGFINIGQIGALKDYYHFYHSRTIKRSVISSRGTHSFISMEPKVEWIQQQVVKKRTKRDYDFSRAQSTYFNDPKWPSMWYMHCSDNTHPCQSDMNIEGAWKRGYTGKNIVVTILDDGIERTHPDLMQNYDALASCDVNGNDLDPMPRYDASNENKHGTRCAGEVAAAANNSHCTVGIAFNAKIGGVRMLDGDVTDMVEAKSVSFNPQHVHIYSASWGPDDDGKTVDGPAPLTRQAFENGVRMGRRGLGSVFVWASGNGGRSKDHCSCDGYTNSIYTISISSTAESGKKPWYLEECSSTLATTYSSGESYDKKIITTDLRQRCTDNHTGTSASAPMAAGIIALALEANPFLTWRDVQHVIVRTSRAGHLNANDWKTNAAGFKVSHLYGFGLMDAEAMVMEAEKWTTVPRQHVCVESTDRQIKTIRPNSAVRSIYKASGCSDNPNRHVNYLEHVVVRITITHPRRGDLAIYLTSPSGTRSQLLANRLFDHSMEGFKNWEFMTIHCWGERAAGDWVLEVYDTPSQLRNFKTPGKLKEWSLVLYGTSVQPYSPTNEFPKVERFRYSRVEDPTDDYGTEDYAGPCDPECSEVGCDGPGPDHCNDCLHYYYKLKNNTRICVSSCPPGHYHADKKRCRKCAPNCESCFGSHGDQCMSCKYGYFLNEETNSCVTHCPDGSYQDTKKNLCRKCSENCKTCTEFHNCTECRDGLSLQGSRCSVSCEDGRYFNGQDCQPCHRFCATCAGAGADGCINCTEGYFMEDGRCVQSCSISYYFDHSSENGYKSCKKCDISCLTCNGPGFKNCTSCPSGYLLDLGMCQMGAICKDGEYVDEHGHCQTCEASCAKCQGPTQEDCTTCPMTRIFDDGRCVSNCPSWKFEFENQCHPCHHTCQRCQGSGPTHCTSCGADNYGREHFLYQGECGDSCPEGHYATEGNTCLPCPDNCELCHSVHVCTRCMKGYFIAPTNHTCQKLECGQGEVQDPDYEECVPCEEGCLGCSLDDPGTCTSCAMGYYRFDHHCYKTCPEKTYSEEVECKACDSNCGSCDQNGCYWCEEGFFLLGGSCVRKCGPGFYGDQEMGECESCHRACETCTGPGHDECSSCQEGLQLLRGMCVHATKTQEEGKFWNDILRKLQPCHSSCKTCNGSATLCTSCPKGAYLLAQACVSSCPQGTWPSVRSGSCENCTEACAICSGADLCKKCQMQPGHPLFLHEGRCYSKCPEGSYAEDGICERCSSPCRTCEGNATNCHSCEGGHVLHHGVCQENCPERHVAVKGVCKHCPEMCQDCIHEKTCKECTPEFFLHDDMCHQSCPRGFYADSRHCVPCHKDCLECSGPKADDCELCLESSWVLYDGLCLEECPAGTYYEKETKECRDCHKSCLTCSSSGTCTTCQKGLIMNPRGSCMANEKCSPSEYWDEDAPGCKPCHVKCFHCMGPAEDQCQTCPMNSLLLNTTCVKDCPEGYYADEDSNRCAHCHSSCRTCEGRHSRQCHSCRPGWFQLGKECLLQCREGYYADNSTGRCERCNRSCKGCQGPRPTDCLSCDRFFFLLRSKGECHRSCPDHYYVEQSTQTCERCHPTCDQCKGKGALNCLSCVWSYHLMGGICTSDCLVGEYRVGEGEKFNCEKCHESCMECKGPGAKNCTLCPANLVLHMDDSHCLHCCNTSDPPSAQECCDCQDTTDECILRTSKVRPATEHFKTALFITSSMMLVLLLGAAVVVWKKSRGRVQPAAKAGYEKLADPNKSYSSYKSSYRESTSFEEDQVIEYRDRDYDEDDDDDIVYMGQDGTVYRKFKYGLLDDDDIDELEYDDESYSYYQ

[8] = target: T3, Proprotein convertase subtilisin/kexin type 4 (Homo sapiens, UniProt Q6UW60)
T3 sequence (Q6UW60 whole entry): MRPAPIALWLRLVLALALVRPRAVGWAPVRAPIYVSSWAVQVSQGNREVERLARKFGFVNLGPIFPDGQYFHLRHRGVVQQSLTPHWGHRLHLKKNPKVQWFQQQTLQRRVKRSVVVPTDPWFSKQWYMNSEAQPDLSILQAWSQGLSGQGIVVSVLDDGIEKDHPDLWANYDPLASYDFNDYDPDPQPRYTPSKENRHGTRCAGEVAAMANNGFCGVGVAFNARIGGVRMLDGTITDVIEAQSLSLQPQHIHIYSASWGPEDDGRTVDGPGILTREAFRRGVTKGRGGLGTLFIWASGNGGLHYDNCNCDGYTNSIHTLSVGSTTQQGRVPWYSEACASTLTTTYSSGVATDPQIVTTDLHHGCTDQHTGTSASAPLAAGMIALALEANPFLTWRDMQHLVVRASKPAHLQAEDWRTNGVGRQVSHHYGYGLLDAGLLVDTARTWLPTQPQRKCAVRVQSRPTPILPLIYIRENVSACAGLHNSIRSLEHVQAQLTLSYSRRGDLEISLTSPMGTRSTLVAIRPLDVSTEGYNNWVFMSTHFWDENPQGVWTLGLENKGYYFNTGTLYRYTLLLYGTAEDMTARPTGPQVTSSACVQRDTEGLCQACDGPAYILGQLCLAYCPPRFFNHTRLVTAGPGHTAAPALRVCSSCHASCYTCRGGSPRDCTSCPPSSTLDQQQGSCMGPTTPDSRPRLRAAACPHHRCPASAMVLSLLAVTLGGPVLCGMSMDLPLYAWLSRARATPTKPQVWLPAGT

[9] = target: T4, Proprotein convertase subtilisin/kexin type 6 (Rattus norvegicus, UniProt Q63415)
T4 sequence (Q63415 whole entry): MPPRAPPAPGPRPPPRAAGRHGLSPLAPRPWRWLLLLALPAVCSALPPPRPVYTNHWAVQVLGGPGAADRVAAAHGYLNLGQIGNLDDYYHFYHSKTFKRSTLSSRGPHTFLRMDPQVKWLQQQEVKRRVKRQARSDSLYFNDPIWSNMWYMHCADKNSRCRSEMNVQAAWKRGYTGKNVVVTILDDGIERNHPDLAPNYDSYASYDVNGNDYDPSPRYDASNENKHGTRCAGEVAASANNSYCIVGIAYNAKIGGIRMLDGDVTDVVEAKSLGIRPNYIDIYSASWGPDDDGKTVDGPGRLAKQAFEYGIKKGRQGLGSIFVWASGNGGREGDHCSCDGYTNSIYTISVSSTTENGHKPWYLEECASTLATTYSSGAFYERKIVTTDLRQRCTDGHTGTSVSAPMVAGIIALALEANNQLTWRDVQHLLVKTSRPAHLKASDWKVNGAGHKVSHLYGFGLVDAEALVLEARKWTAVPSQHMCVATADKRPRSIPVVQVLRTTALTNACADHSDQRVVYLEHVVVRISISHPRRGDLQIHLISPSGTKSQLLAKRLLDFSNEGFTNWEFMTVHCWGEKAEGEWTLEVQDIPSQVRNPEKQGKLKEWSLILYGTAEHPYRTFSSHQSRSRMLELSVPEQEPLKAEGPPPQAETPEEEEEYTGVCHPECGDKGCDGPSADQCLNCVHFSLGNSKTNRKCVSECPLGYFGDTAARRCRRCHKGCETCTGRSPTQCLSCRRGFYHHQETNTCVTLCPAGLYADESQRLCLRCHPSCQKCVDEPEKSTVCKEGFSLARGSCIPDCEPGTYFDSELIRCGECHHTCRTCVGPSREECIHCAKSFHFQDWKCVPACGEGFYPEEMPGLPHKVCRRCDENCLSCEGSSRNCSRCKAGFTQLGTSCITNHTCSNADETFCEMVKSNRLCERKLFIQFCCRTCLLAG

RAW264.7 = test: Cytotoxicity against mouse RAW264.7 cells =< 0.5 mM after 4 hrs by MTT assay; type: cell-based; conditions: raw264.7, 4 h
Furin [10] = target: T2, Furin; test: Inhibition of furin-mediated Pseudomonas exotoxin A proteolysis by peptide cleavage reaction
U-251 [11] = test: Inhibition of proprotein convertase-dependent delivery of PA63-lethal toxin complex into cytosol in human U251 cells at 20 uM; type: cell-based; conditions: Bacillus anthracis
U-251 [12] = test: Inhibition of proprotein convertase-mediated anthrax protective antigen-83 processing in human U251 cells at 20 uM by Western blot; type: cell-based; conditions: Bacillus anthracis
Mus musculus = test: Protection against Pseudomonas exotoxin A-induced toxicity in C57BL/6 mouse assessed as survival at 12.5 mg/kg, ip once daily administered 1 hr prior to toxin challenge; type: functional; conditions: C57BL/6, ip, route intraperitoneal

Compound	Activity (U-251 [1])	Ki [5]	Ki [7]	Ki [8]	Ki [9]	other results
CNC(=O)[C@H](Cc1c[nH]c2ccccc12)NC(=O)[C@@H](CC(=O)NO)CC(C)C	Active					
C[C@H](NC(=O)[C@H](CCCNC(=N)N)NC(=O)[C@@H]1CCCN1C(=O)[C@@H](NC(=O)CCN)[C@@H](C)O)C(=O)N[C@@H](CCCNC(=N)N)C(=O)N[C@@H](CCCNC(=N)N)C(=O)N[C@@H](CCCNC(=N)N)C(=O)N[C@@H](CCCCN)C(=O)N[C@@H](CCCCN)C(=O)N[C@@H](CCCNC(=N)N)C(=O)N[C@H](C(N)=O)[C@@H](C)O (H-[βAla]TPRARRRKKRT-NH2)						Activity (Bacillus anthracis [2]): 40%; Survival (Bacillus anthracis [3]): 6.63 days
O=C(O)c1cn(C2CC2)c2cc(N3CCNCC3)c(F)cc2c1=O [CIPROFLOXACIN]						Survival (Bacillus anthracis [4]): 6 days
H-TPRARRRKKRI-NH2		135 nM	492 nM	562 nM	267 nM	Ki (Furin [6]): 30 nM
H-TPRARRRKKRT-NH2	Active	135 nM	232 nM	441 nM	162 nM	Activity (RAW264.7): Non-toxic; Activity (Furin [10]): Active; Activity (U-251 [11]): Active; Activity (U-251 [12]): Active; survival at 12.5 mg/kg (Mus musculus): 60%
